Experimental data reported in patent US20140148498A1, “METHODS AND COMPOSITIONS FOR THE TREATMENT OF MARFAN SYNDROME AND ASSOCIATED DISORDERS” (THE JOHNS HOPKINS UNIVERSITY, priority 2011, published 2014).
“Also recorded” adds a separate entry of the source.

What was measured:
Fbn1^C1039G/+ mice [1] = assay: Aortic root and ascending aortic growth by echocardiography (Examples 6-8); type: in vivo
From the text: (§1) All mice were cared for under strict compliance with the Animal Care and Use Committee of the Johns Hopkins University School of Medicine. The Smad4 haploinsufficient mice were a generous gift from Dr. Chuxia Deng (NIH/NIDDK, Bethesda). The Fbn1^C1039G/+ line was maintained on a C57BL/6 background, allowing for valid comparisons. In order to further accommodate the potential for temporal- or background-specific variation in genetic or pharmacological manipulation experiments, all comparisons were made between contemporary littermates. Mice were checked daily for death and all mice found dead were immediately necropsied to assess for evidence of aortic dissection. Mice were killed with an inhalation overdose of halothane (Sigma-Aldrich, St. Louis). Mice underwent immediate laparotomy, descending abdominal aortic transection, and PBS (pH 7.4) infusion through the left ventricle to flush out the blood. For Western blot analysis, the proximal ascending aorta (root to right brachiocephalic trunk) was removed, flash frozen in liquid nitrogen and stored at −80° C. Following PBS infusion, mice analyzed for aortic histology had latex injected under low pressure into the left ventricular apex until it was visible in the descending abdominal aorta. The mice were then fixed for 24 hours in 10% buffered formalin, after which the heart and aorta were removed and stored in 70% ethanol.
Mouse monoclonal TGFβNAb (1d11; R&D Systems, Minneapolis) was reconstituted in PBS and administered via intraperitoneal injection 3 times a week at a dose of 5 mg/kg. Treatment was initiated at 1 month of age and continued for 2 months. IgG (Zymed Laboratories Inc, San Francisco) was reconstituted in PBS, and administered at a dose of 10 mg/kg as a control. SP600125 (Sigma-Aldrich, St. Louis) was reconstituted in 10% DMSO dissolved in PBS, and administered twice daily by intraperitoneal injection, at a dose of 30 mg/kg. Treatment was initiated at 1 month of age and continued for 2 months. 10% DMSO dissolved in PBS was administered as a control. RDEA119 was reconstituted in 10% 2-hydroxypropyl-beta-cyclodextrin (Sigma-Aldrich, St. Louis) dissolved in PBS, and administered twice daily by oral gavage at a dose of 25 mg/kg. Treatment was initiated at 2 months of age and continued for 2 months. 10% 2-hydroxypropyl-beta-cyclodextrin dissolved in PBS was administered as a control. Fasudil was dissolved in drinking water, and administered at a dose of 1 mg/kg body weight per day. Treatment was initiated at 2 months of age and continued for 4 months. Drinking water was administered as a control.
Nair hair removal cream was used on all mice the day prior to echocardiography. All echocardiograms were performed on awake, unsedated mice using the Visualsonics Vevo 660 V1.3.6 imaging system and a 30 MHz transducer. The aorta was imaged using a parasternal long axis view. Three separate measurements of the maximal internal systolic dimension at the sinus of Valsalva and proximal ascending aorta were made, and a mean was calculated. All imaging and measurements were performed by a cardiologist who was blinded to genotype and treatment arm. In the TGFβNAb and SP600125 trials, mice were imaged at 1 month (baseline) and 3 months of age, after which they were killed. In the RDEA119 trial, mice were imaged at 2 months (baseline) and 4 months of age, after which they were killed. In the fasudil trial, mice were imaged at 2 months (baseline) and 6 months of age, after which they were killed. Smad4 haploinsufficient mice were imaged at 1 month, and then every 2 months thereafter, until death or sacrifice.

WT mice = assay: Aortic root growth by echocardiography, WT mice (Examples 6-8); type: in vivo; details: 1 mg/kg per day in drinking water, 4 months, FIG. 18
From the text: as §1
Mouse monoclonal TGFβNAb (1d11; R&D Systems, Minneapolis) was reconstituted in PBS and administered via intraperitoneal injection 3 times a week at a dose of 5 mg/kg. Treatment was initiated at 1 month of age and continued for 2 months. IgG (Zymed Laboratories Inc, San Francisco) was reconstituted in PBS, and administered at a dose of 10 mg/kg as a control. […]
Nair hair removal cream was used on all mice the day prior to echocardiography. […] Three separate measurements of the maximal internal systolic dimension at the sinus of Valsalva and proximal ascending aorta were made, and a mean was calculated. […]

Fbn1^C1039G/+ mice [2] = assay: Aortic root growth by echocardiography, 7 months of treatment (Examples 3-5); type: in vivo; details: for Final absolute aortic root diameter: 7 months of treatment; for Aortic root growth over 7 months of treatment: versus placebo, drug in drinking water from 8 weeks of age
Experimental: A head-to-head comparison of ACEi versus ARBs was performed. Fbn1^C1039G/+ mice and WT littermates were treated with hemodynamically equivalent doses (FIG. 8) of either the ACEi enalapril (10 to 15 mg/kg of body weight per day) or the ARB losartan (40 to 60 mg/kg per day) (R. D. Patten et al., Clin. Sci 104, 109 (2003)), beginning at 8 weeks of age, and were assessed with serial echocardiograms. […] It is noteworthy that losartan reduced aortic root growth in Fbn1^C1039G/+ mice, but had no effect in WT littermates (P=0.27). […] Whether AT2 signaling is needed to achieve losartan's full therapeutic benefit was assessed. AT2KO:Fbn1^C1039G/+ mice were treated with losartan from 8 weeks of age and followed by serial echocardiography until they were killed at 9 months of age (FIG. 2C).
(§2) All mice were cared for under strict compliance with the Animal Care and Use Committee of the Johns Hopkins University School of Medicine. The Fbn1^C1039G/+ and AT2KO lines were maintained n a pure C57BL/6 background (backcrossed for greater than 9 generations), allowing for valid comparisons. In order to further accommodate the potential for temporal- or background-specified variation, all comparisons were made between contemporary littermates when possible. The AT21C0 mice were obtained as a generous gift from Dr. Inagami (T. Ichiki et al., Nature 377, 748 (1995)). The Agtr2 gene resides on the X chromosome and therefore we used either male mice carrying the mutated allele (who are hemizygous) or homozygous females, both of which have been previously shown to be functionally null for the AT2 receptor (T. Ichiki et al., Nature 377, 748 (1995)). Mice were sacrificed with an inhalation overdose of halothane (Sigma-Aldrich, St. Louis). Mice underwent immediate laparotomy, descending abdominal aortic transection, and PBS (pH 7.4) was infused through the right and left ventricles to flush out the blood. Mice that were analyzed for Western Blot analysis had their proximal ascending aortas (root to right brachiocephalic trunk) immediately dissected out, flash frozen in liquid nitrogen and stored at −80d until further processing. Mice that were analyzed for aortic histology had latex injected under low pressure into the left ventricular apex until it was visible in the descending abdominal aorta. Mice that were analyzed for lung histology had their trachea intubated with a 20-gauge blunted needle, and 0.5% agar was infused under a low and constant pressure to gradually inflate the lungs. The trachea was then tied-off using vicryl and the needle was removed. Mice were fixed for 24 hours in 10% buffered formalin, after which the heart, aorta and lungs were removed and stored in 70% ethanol.
(§3) Mice were started on medication at 8 weeks of age and continued for 7 months. Losartan was dissolved in drinking water and filtered to reach a concentration of 0.6 g/L, giving an estimated daily dose of 40-60 mg/kg/day. Enalapril was dissolved in drinking water and filtered to reach a final concentration of 0.15 g/L, giving an estimated daily dose of 10-15 mg/kg/day. […] Spironolactone was dissolved in drinking water and filtered to give an estimated dose of 20 mg/kg/day, a dose previously shown to have in-vivo phenotypic benefit in cardiovascular disease states (S. Sakurabayashi-Kitade et al., Atherosclerosis 206, 54 (2009)). Placebo-treated animals received regular drinking water. Blood pressures were analyzed by taking 20 tail cuff blood pressures per day over 5 days in each mouse to habituate the mice to the tail cuff pressure system, and the blood pressures obtained on the last day were averaged. At least 4 mice for each treatment group were analyzed.
Nair hair removal cream was used on all mice the day prior to echocardiograms. All echocardiograms were performed on awake, unsedated mice using the Visualsonics Vevo 660 V1.3.6 imaging system and a 30 MHz transducer. Mice were imaged at baseline, 1 month after treatment and then every two months until the time of sacrifice. […]

Fbn1^C1039G/+ mice [3] = assay: Systolic blood pressure by tail cuff; type: in vivo; details: compared to placebo-treated animals, FIG. 8
Experimental: as §3

Fbn1^C1039G/+ mice [4] = assay: Aortic wall architecture score (VVG staining); type: in vivo
Experimental: Latex-infused ascending aortas were transected just above the level of the aortic valve, and 2-3 mm transverse sections were mounted in 4% agar prior to paraffin fixation. Five micrometer aortic sections underwent Verhoeff-van Giesen (VVG) staining and were imaged at 40× magnification, using a Nikon Eclipse E400 microscope. Wall thickness of the aortic media was measured by a single blinded observer at 16 different locations around the most proximal ascending aortic ring and averaged. Wall architecture of 4 representative sections for each mouse was assessed by the same 3 blinded observers and graded on an arbitrary scale of 1 (indicating no breaks in the elastic fiber) to 5 (indicating diffuse fragmentation), and the results were averaged. Elastic fiber content was quantified in four separate representative images of each section of the most proximal ascending aorta by a single blinded observer, using NIS Elements Advanced Research (Nikon, Japan). The aortic media and the elastic fibers were individually outlined and their areas calculated. The respective areas were averaged from all the images of a given aortic section and the ratio of elastic fiber content to total aortic media was determined. Individual lobes of the lungs were mounted in 4% agar and fixed in paraffin. Five micrometer lung sections underwent hematoxylin and eosin staining and were imaged at 10× magnification, using a Nikon Eclipse E400 microscope. Five fields were analyzed for each lobe of each lung by a single blinded observer, and a mean linear intercept was calculated using a previously described method (J. P. Habashi et al., Science 312, 117 (2006); and E. R. Neptune et al., Nat. Genet. 33, 407 (2003)).

ERK1/2 = assay: Western blot of aortic root and proximal ascending aorta: ERK1/2 activation (Examples 4-5); type: in vivo, mice; details: Fbn1^C1039G/+ mice, FIG. 10B
From the text: as §2, with “The trachea was then tied-off using vicryl and the needle was removed. Mice were fixed for 24 hours in 10% buffered formalin, after which the heart, aorta and lungs were removed and stored in 70% ethanol.” left out
(§4) Mouse aortic root and ascending aortas (aortic root excluding the aortic valve to origin of right brachiocephalic trunk) were harvested, snap-frozen in liquid nitrogen and stored at −80° C. until processed. […] Equal protein loading of samples was determined by a protein assay (BioRad, CA), and confirmed by probing with antibodies against β-Actin or GAPDH (Sigma, Mo.). […]

Smad2 = assay: Western blot of aortic root and proximal ascending aorta: Smad2 activation (Examples 4-5); type: in vivo, mice; details: Fbn1^C1039G/+ mice, FIG. 10B
From the text: as §2
Mouse aortic root and ascending aortas (aortic root excluding the aortic valve to origin of right brachiocephalic trunk) were harvested, snap-frozen in liquid nitrogen and stored at −80° C. until processed. Protein was extracted using the reagents and protocol from a Total Protein Extraction Kit containing protease inhibitor and Protein Phosphatase Inhibitor Cocktail (Millipore, MA). Aortas were homogenized using a pellet pestle motor (Kimble-Kontes, NJ) as per the extraction kit protocol. […] Equal protein loading of samples was determined by a protein assay (BioRad, CA), and confirmed by probing with antibodies against β-Actin or GAPDH (Sigma, Mo.). […] Blots were then washed in PBS-T, developed using SuperSignalWest HRP substrate (Pierce Scientific, IL), exposed to BioMax Scientific Imaging Film (Sigma, Mo.) and quantified using Imaged analysis software (NIH, MD).

JNK1 = assay: Western blot of proximal ascending aorta: JNK1 activation (Examples 4-5); type: in vivo, mice; details: Fbn1^C1039G/+ mice, FIG. 13
From the text: as §2, with “The trachea was then tied-off using vicryl and the needle was removed. Mice were fixed for 24 hours in 10% buffered formalin, after which the heart, aorta and lungs were removed and stored in 70% ethanol.” left out
as §4

p38 = assay: Western blot of proximal ascending aorta: p38 activation (Examples 4-5); type: in vivo, mice; details: Fbn1^C1039G/+ mice, FIG. 13
From the text: as §2, with “The trachea was then tied-off using vicryl and the needle was removed. Mice were fixed for 24 hours in 10% buffered formalin, after which the heart, aorta and lungs were removed and stored in 70% ethanol.” left out
as §4

Row | Structure (SMILES) | Absolute final aortic root diameter (Fbn1^C1039G/+ mice [1]; 1 mg/kg per day in drinking water, 4 months, FIG. 18) | Aortic root growth over 4 months (Fbn1^C1039G/+ mice [1]; fasudil trial) | Absolute final aortic root diameter (WT mice) | Final absolute aortic root diameter (Fbn1^C1039G/+ mice [2]; FIG. 15, mean +/- 2 SEM) | Aortic root growth over 7 months of treatment (Fbn1^C1039G/+ mice [2]) | Systolic blood pressure (Fbn1^C1039G/+ mice [3]) | Aortic wall architecture score (Fbn1^C1039G/+ mice [4]; FIG. 9) | Aortic wall architecture score (Fbn1^C1039G/+ mice [4]; FIG. 9, listed as Enalapril) | ERK1/2 activation (ERK1/2) | Smad2 activation (Smad2) | Smad2 activation (Smad2; listed as Enalapril) | JNK1 activation (JNK1) | Final absolute aortic root diameter (Fbn1^C1039G/+ mice [2]; FIG. 2B, mean +/- 2 SEM) | Aortic root growth over 7 months of treatment (Fbn1^C1039G/+ mice [2]; listed as Enalapril) | p38 activation (p38)
1 | O=S(=O)(c1cccc2cnccc12)N1CCCNCC1 [fasudil] | 2.40+/−0.16 | lack of rescue of aortic root growth; also recorded: failed to attenuate aortic root growth | 1.73+/−0.05 | – | – | – | – | – | – | – | – | – | – | – | –
2 | CC(=O)S[C@@H]1CC2=CC(=O)CC[C@]2(C)[C@H]2CC[C@@]3(C)[C@@H](CC[C@@]34CCC(=O)O4)[C@H]12 [spironolactone] | – | – | – | 2.19+/−0.19 | no significant difference; also recorded: no significant inhibition of aortic root growth | – | – | – | – | – | – | – | – | – | –
3 | CCOC(=O)[C@H](CCc1ccccc1)N[C@@H](C)C(=O)N1CCC[C@H]1C(=O)O [enalapril] | – | – | – | – | marginal (P=0.05) decrease in growth | equal reduction in systolic blood pressure | no more effective than placebo | no more beneficial than placebo | no more effective than placebo; also recorded: failed to reduce ERK1/2 activation | decreased | significantly more than losartan | small reduction in JNK1 activation; also recorded: modest reduction in JNK1 activation | 2.18+/−0.18 mm | only marginally better than placebo treatment | do not affect p38 activation; also recorded: neither had any effect
